Assay results reported in patent US7772241B2, “Variolin derivatives and their use as antitumor agents” (Pharma Mar S.A., priority 2001, dated 2010).
Where two headings read alike, the source gives them in different places.

Columns and labels:
SK-MEL-28 = assay: Inhibition of cells growth by colorimetric (SRB) assay, SK-MEL-28; details: for GI50 / CC50: Homo sapiens, SK-MEL-28, 48 h; for GI50: read-out: GI50 MEL-28, SRB assay, 48 hours exposure; for CC50: read-out: LC50 MEL-28, SRB assay, 48 hours exposure; for TGI MEL-28: SRB assay, 48 hours exposure
Summary of the method: (§1)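 Read-out is sulforhodamine B protein stain (OD 490 nm) after cold TCA fixation, following 48 h continuous exposure to samples spanning 10 to 10^−8 μg/ml.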

SK-OV-3 = assay: Inhibition of cells growth by colorimetric (SRB) assay, SK-OV-3; details: for CC50: read-out: LC50 SKOV-3, SRB assay, 48 hours exposure
Summary of the method: as §1

SK-BR-3 = assay: Inhibition of cells growth by colorimetric (SRB) assay, SK-BR-3; details: for GI50: read-out: GI50 SK-BR-3, SRB assay, 48 hours exposure
Summary of the method: as §1

LoVo = assay: Inhibition of cells growth by colorimetric (SRB) assay, LoVo; details: for GI50 / CC50: Homo sapiens, LoVo, 48 h; for GI50: read-out: GI50 LOVO, SRB assay, 48 hours exposure; for CC50: read-out: LC50 LOVO, SRB assay, 48 hours exposure; for TGI LOVO: SRB assay, 48 hours exposure
Summary of the method: as §1

LNCaP = assay: Inhibition of cells growth by colorimetric (SRB) assay, LNCaP
Summary of the method: as §1

DU-145 = assay: Inhibition of cells growth by colorimetric (SRB) assay, DU-145; details: for GI50: read-out: GI50 DU-145, SRB assay, 48 hours exposure
Summary of the method: as §1

IGROV-ET = assay: Inhibition of cells growth by colorimetric (SRB) assay, IGROV-ET; details: for CC50: read-out: LC50 IGROV-ET, SRB assay, 48 hours exposure
Summary of the method: as §1

[1] = Inhibition of cells growth by colorimetric (SRB) assay, HMEC1; details: human, HMEC1 cells, LC50 H-MEC-1, SRB assay, 48 hours exposure
HMEC1 = assay: as above; details: for TGI H-MEC-1: in M (unit assumed)
K-562 = assay: Inhibition of cells growth by colorimetric (SRB) assay, K-562
Summary of the method: as §1

PANC-1 = assay: Inhibition of cells growth by colorimetric (SRB) assay, PANC-1; details: for GI50 / CC50: Homo sapiens, PANC-1, 48 h; for GI50: read-out: GI50 PANC-1, SRB assay, 48 hours exposure; for CC50: read-out: LC50 PANC-1, SRB assay, 48 hours exposure; for TGI PANC-1: SRB assay, 48 hours exposure
Summary of the method: as §1

IGROV-1 = assay: Inhibition of cells growth by colorimetric (SRB) assay, IGROV-1
Summary of the method: as §1

A-549 = assay: Inhibition of cells growth by colorimetric (SRB) assay, A-549
Summary of the method: as §1

HT-29 = assay: Inhibition of cells growth by colorimetric (SRB) assay, HT-29; details: for GI50 / CC50: Homo sapiens, HT-29, 48 h; for GI50: read-out: GI50 HT-29, SRB assay, 48 hours exposure; for CC50: read-out: LC50 HT-29, SRB assay, 48 hours exposure; for TGI HT-29: SRB assay, 48 hours exposure
Summary of the method: as §1

LoVo-Dox = assay: Inhibition of cells growth by colorimetric (SRB) assay, LoVo-Dox; details: for GI50 / CC50: Homo sapiens, 48 h; for GI50: read-out: GI50 LOVO-DOX, SRB assay, 48 hours exposure; for CC50: read-out: LC50 LOVO-DOX, SRB assay, 48 hours exposure; for TGI LOVO-DOX: SRB assay, 48 hours exposure
Summary of the method: as §1

## CS(=O)(=O)c1nccc(-c2c3c(Cl)ccnc3n3c(N)nccc23)n1 [Compound 111]
SK-MEL-28
  GI50: 1.25 µM
  CC50: 15.7 µM
  TGI MEL-28: 5.15E−06
SK-OV-3; Homo sapiens, SK-OV-3, 48 h, read-out: GI50 SKOV-3, SRB assay, 48 hours exposure
  GI50: 2.05 µM
SK-OV-3; Homo sapiens, SK-OV-3, 48 h
  CC50: 21.8 µM
SK-OV-3; SRB assay, 48 hours exposure
  TGI SKOV-3: 6.88E−06
SK-BR-3; Homo sapiens, SK-BR-3, 48 h
  GI50: 4.35 µM
SK-BR-3; Homo sapiens, SK-BR-3, 48 h, read-out: LC50 SK-BR-3, SRB assay, 48 hours exposure
  CC50: 21.3 µM
SK-BR-3; SRB assay, 48 hours exposure
  TGI SK-BR-3: 9.69E−06
LoVo
  GI50: 1.54 µM
  CC50: 26.7 µM
  TGI LOVO: 6.99E−06
LNCaP; Homo sapiens, LNCaP, 48 h, read-out: GI50 LN-caP, SRB assay, 48 hours exposure
  GI50: 4.3 µM
LNCaP; Homo sapiens, LNCaP, 48 h, read-out: LC50 LN-caP, SRB assay, 48 hours exposure
  CC50: 19.9 µM
LNCaP; SRB assay, 48 hours exposure
  TGI LN-caP: 9.26E−06
DU-145; Homo sapiens, DU-145, 48 h
  GI50: 1.94 µM
DU-145; Homo sapiens, DU-145, 48 h, read-out: LC50 DU-145, SRB assay, 48 hours exposure
  CC50: 16.8 µM
DU-145; SRB assay, 48 hours exposure
  TGI DU-145: 6.40E−06
IGROV-ET; Homo sapiens, 48 h, read-out: GI50 IGROV-ET, SRB assay, 48 hours exposure
  GI50: 3.87 µM
IGROV-ET; Homo sapiens, 48 h
  CC50: 26.7 µM
IGROV-ET; SRB assay, 48 hours exposure
  TGI IGROV-ET: 1.10E−05
[1]
  CC50 at 48 h: 0.603 µM
HMEC1; Homo sapiens, HMEC-1, 48 h, read-out: GI50 H-MEC-1, SRB assay, 48 hours exposure
  GI50: 0.00108 µM
HMEC1; SRB assay, 48 hours exposure
  TGI H-MEC-1: 1.53E−08
K-562; Homo sapiens, K562, 48 h, read-out: GI50 K-562, SRB assay, 48 hours exposure
  GI50: 7.26 µM
K-562; Homo sapiens, K562, 48 h, read-out: LC50 K-562, SRB assay, 48 hours exposure
  CC50: 26.7 µM
K-562; SRB assay, 48 hours exposure
  TGI K-562: 1.59E−05
PANC-1
  GI50: 3.07 µM
  CC50: 24.6 µM
  TGI PANC-1: 8.70E−06
IGROV-1; Homo sapiens, IGROV-1, 48 h, read-out: GI50 IGROV, SRB assay, 48 hours exposure
  GI50: 3.55 µM
IGROV-1; Homo sapiens, IGROV-1, 48 h, read-out: LC50 IGROV, SRB assay, 48 hours exposure
  CC50: 25.9 µM
IGROV-1; SRB assay, 48 hours exposure
  TGI IGROV: 9.60E−06
A-549; Homo sapiens, A549, 48 h, read-out: GI50 A-549, SRB assay, 48 hours exposure
  GI50: 4.35 µM
A-549; Homo sapiens, A549, 48 h, read-out: LC50 A-549, SRB assay, 48 hours exposure
  CC50: 26.7 µM
A-549; SRB assay, 48 hours exposure
  TGI A-549: 1.30E−05
HT-29
  GI50: 5.34 µM
  CC50: 26.7 µM
  TGI HT-29: 1.66E−05
LoVo-Dox
  GI50: 1.51 µM
  CC50: 26.7 µM
  TGI LOVO-DOX: 7.07E−06

## COc1nccc(-c2c3cccnc3n3c(N)nccc23)n1.Cl [Compound 81]
SK-MEL-28
  GI50: 0.313 µM
  CC50: 1.74 µM
  TGI MEL-28: 7.36E−07
SK-OV-3; Homo sapiens, SK-OV-3, 48 h
  CC50: 34.5 µM
SK-OV-3; SRB assay, 48 hours exposure
  TGI SKOV-3: 8.52E−06
SK-OV-3; read-out: GI50 SKOV-3, SRB assay, 48 hours exposure
  GI50: 0.797 µM
SK-BR-3; Homo sapiens, SK-BR-3, 48 h
  GI50: 0.855 µM
SK-BR-3; SRB assay, 48 hours exposure
  TGI SK-BR-3: 2.26E−06
SK-BR-3; read-out: LC50 SK-BR-3, SRB assay, 48 hours exposure
  CC50: 9.49 µM
LoVo
  GI50: 0.224 µM
  CC50: ≥ 30.4 µM
  TGI LOVO: 1.77E−06
LNCaP; SRB assay, 48 hours exposure
  TGI LN-caP: 2.61E−07
LNCaP; read-out: GI50 LN-caP, SRB assay, 48 hours exposure
  GI50: 0.158 µM
LNCaP; read-out: LC50 LN-caP, SRB assay, 48 hours exposure
  CC50: 2.77 µM
DU-145; Homo sapiens, DU-145, 48 h
  GI50: 0.928 µM
DU-145; SRB assay, 48 hours exposure
  TGI DU-145: 2.40E−06
DU-145; read-out: LC50 DU-145, SRB assay, 48 hours exposure
  CC50: > 30.4 µM
IGROV-ET; Homo sapiens, 48 h
  CC50: ≥ 30.4 µM
IGROV-ET; SRB assay, 48 hours exposure
  TGI IGROV-ET: 2.28E−07
IGROV-ET; read-out: GI50 IGROV-ET, SRB assay, 48 hours exposure
  GI50: 0.0855 µM
[1]
  CC50 at 48 h: 0.858 µM
HMEC1; SRB assay, 48 hours exposure
  TGI H-MEC-1: 2.62E−07
HMEC1; read-out: GI50 H-MEC-1, SRB assay, 48 hours exposure
  GI50: 0.171 µM
K-562; SRB assay, 48 hours exposure
  TGI K-562: 3.29E−07
K-562; read-out: GI50 K-562, SRB assay, 48 hours exposure
  GI50: 0.0791 µM
K-562; read-out: LC50 K-562, SRB assay, 48 hours exposure
  CC50: 0.523 µM
PANC-1
  GI50: 1 µM
  CC50: ≥ 30.4 µM
  TGI PANC-1: 2.86E−06
IGROV-1; SRB assay, 48 hours exposure
  TGI IGROV: 2.70E−06
IGROV-1; read-out: GI50 IGROV, SRB assay, 48 hours exposure
  GI50: 0.21 µM
IGROV-1; read-out: LC50 IGROV, SRB assay, 48 hours exposure
  CC50: 20.5 µM
A-549; SRB assay, 48 hours exposure
  TGI A-549: 3.04E−05
A-549; read-out: GI50 A-549, SRB assay, 48 hours exposure
  GI50: ≥ 30.4 µM
A-549; read-out: LC50 A-549, SRB assay, 48 hours exposure
  CC50: ≥ 30.4 µM
HT-29
  GI50: 1.3 µM
  CC50: ≥ 30.4 µM
  TGI HT-29: 3.04E−05
LoVo-Dox
  GI50: 0.706 µM
  CC50: ≥ 30.4 µM
  TGI LOVO-DOX: 3.04E−06
